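Assay format: 96-well plates, 48-hour exposure. Abbreviation: GI50, concentration required for 50% inhibition of growth.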 Active and inactive are the calls of the source. Cut-off read from the data, not from the text of the source: active = GI50 up to about 1.1 µM and inactive = higher.
Legend:
Assay in all cases: growth of human tumour cells (NCI), 48 h
786-0 = test system: 786-0
A498 = test system: A498
A549 = test system: A549
ACHN = test system: ACHN
CAKI-1 = test system: CAKI-1
CCRF-CEM = test system: CCRF-CEM
COLO 205 = test system: COLO 205
DU-145 = test system: DU-145
EKVX = test system: EKVX
HCC 2998 = test system: HCC 2998
HCT-116 = test system: HCT-116
HCT-15 = test system: HCT-15
HL-60 = test system: HL-60
HOP-62 = test system: HOP-62
HOP-92 = test system: HOP-92
HT-29 = test system: HT-29
Hs-578T = test system: Hs-578T
IGROV-1 = test system: IGROV-1
K562 = test system: K562
KM12 = test system: KM12
LOX IMVI = test system: LOX IMVI
M14 = test system: M14
MCF7 = test system: MCF7
MDA-MB-231 = test system: MDA-MB-231
MDA-MB-435 = test system: MDA-MB-435
MDA-N = test system: MDA-N
MOLT-4 = test system: MOLT-4
Malme-3M = test system: Malme-3M
NCI-H226 = test system: NCI-H226
NCI-H23 = test system: NCI-H23
NCI-H522 = test system: NCI-H522
NCI/ADR-RES = test system: NCI/ADR-RES
OVCAR-3 = test system: OVCAR-3
OVCAR-4 = test system: OVCAR-4
OVCAR-5 = test system: OVCAR-5
OVCAR-8 = test system: OVCAR-8
PC-3 = test system: PC-3
RPMI-8226 = test system: RPMI-8226
RXF 393 = test system: RXF 393
SF-268 = test system: SF-268
SF-295 = test system: SF-295
SF-539 = test system: SF-539
SK-MEL-28 = test system: SK-MEL-28
SK-MEL-2 = test system: SK-MEL-2
SK-MEL-5 = test system: SK-MEL-5
SK-OV-3 = test system: SK-OV-3
SN12C = test system: SN12C
SNB-19 = test system: SNB-19
SNB-75 = test system: SNB-75
SR = test system: SR
SW-620 = test system: SW-620
T47D = test system: T47D
TK-10 = test system: TK-10
U-251 = test system: U-251
UACC-257 = test system: UACC-257
UO-31 = test system: UO-31
NCI-H460 = test system: NCI-H460
UACC-62 = test system: UACC-62

With `N/N=C1N=C(Cl)/C(=C/c2ccco2)N\1` the GI50 (786-0) was 61.5 µM (inactive), the GI50 (A498) was > 100 µM (inactive) and the GI50 (A549) was 38 µM (inactive). The GI50 (ACHN) was 50.4 µM (inactive), the GI50 (CAKI-1) was 48.6 µM (inactive) and the GI50 (CCRF-CEM) was 31.4 µM (inactive). The GI50 (COLO 205) was 43.1 µM (inactive), the GI50 (DU-145) was 50.4 µM (inactive) and the GI50 (EKVX) was > 100 µM (inactive). The GI50 (HCC 2998) was 27.6 µM (inactive), the GI50 (HCT-116) was 36.5 µM (inactive) and the GI50 (HCT-15) was 31.5 µM. For the same molecule, the GI50 (HL-60) was 21.9 µM (inactive), the GI50 (HOP-62) was 59.2 µM (inactive) and the GI50 (HOP-92) was 47.2 µM (inactive). The GI50 (HT-29) was 34.9 µM (inactive), the GI50 (Hs-578T) was 41.3 µM (inactive) and the GI50 (IGROV-1) was 42.4 µM (inactive). The GI50 (K562) was 14.8 µM (inactive), the GI50 (KM12) was 28.2 µM (inactive) and the GI50 (LOX IMVI) was 27.9 µM (inactive). For the same molecule, the GI50 (M14) was 35.2 µM (inactive), the GI50 (MCF7) was 56 µM (inactive) and the GI50 (MDA-MB-231) was > 100 µM (inactive). For the same molecule, the GI50 (MDA-MB-435) was 40.6 µM (inactive), the GI50 (MDA-N) was 47.8 µM (inactive) and the GI50 (MOLT-4) was 11.9 µM (inactive). For the same molecule, the GI50 (Malme-3M) was 52.5 µM (inactive), the GI50 (NCI-H226) was > 100 µM (inactive) and the GI50 (NCI-H23) was 54.8 µM (inactive). For the same molecule, the GI50 (NCI-H522) was 22.7 µM (inactive), the GI50 (NCI/ADR-RES) was 44.5 µM (inactive) and the GI50 (OVCAR-3) was 28.7 µM (inactive). The GI50 (OVCAR-4) was 31.6 µM (inactive), the GI50 (OVCAR-5) was > 100 µM (inactive) and the GI50 (OVCAR-8) was 44.5 µM (inactive). The GI50 (PC-3) was 36.7 µM (inactive), the GI50 (RPMI-8226) was 16.8 µM (inactive) and the GI50 (RXF 393) was 65.2 µM (inactive). For the same molecule, the GI50 (SF-268) was 34.3 µM (inactive), the GI50 (SF-295) was 38.1 µM (inactive) and the GI50 (SF-539) was 22.4 µM (inactive). For the same molecule, the GI50 (SK-MEL-28) was 60.8 µM (inactive), the GI50 (SK-MEL-2) was 36.2 µM (inactive) and the GI50 (SK-MEL-5) was 34 µM (inactive). For the same molecule, the GI50 (SK-OV-3) was 76 µM (inactive), the GI50 (SN12C) was 67.1 µM (inactive) and the GI50 (SNB-19) was 50.5 µM (inactive). For the same molecule, the GI50 (SNB-75) was 32.7 µM (inactive), the GI50 (SR) was 25.8 µM (inactive) and the GI50 (SW-620) was 41.5 µM (inactive). The GI50 (T47D) was 40.4 µM (inactive), the GI50 (TK-10) was 71.9 µM (inactive) and the GI50 (U-251) was 47.9 µM (inactive). For the same molecule, the GI50 (UACC-257) was 52.8 µM (inactive) and the GI50 (UO-31) was 43.1 µM (inactive).

For `CCOC(=O)N(C)C1(c2ccccc2)CCN(CCCC(=O)c2ccc(F)cc2)CC1`, the GI50 (786-0) was 33 µM (inactive), the GI50 (A498) was 36.5 µM (inactive) and the GI50 (A549) was 92.3 µM (inactive). The GI50 (ACHN) was 84.1 µM (inactive), the GI50 (CAKI-1) was 2.16 µM (inactive) and the GI50 (CCRF-CEM) was 31.7 µM (inactive). The GI50 (COLO 205) was 15.4 µM (inactive), the GI50 (DU-145) was > 100 µM (inactive) and the GI50 (EKVX) was > 100 µM (inactive). The GI50 (HCC 2998) was 21 µM (inactive), the GI50 (HCT-116) was 32.2 µM (inactive) and the GI50 (HCT-15) was 35.1 µM. The GI50 (HL-60) was 26.5 µM (inactive), the GI50 (HOP-62) was 38.5 µM (inactive) and the GI50 (HOP-92) was 34.8 µM (inactive). For the same molecule, the GI50 (HT-29) was 19.7 µM (inactive), the GI50 (Hs-578T) was 49 µM (inactive) and the GI50 (IGROV-1) was > 100 µM (inactive). For the same molecule, the GI50 (K562) was 23.7 µM (inactive), the GI50 (KM12) was 30.5 µM (inactive) and the GI50 (LOX IMVI) was 20.9 µM (inactive). The GI50 (M14) was 17.2 µM (inactive), the GI50 (MCF7) was 33.4 µM (inactive) and the GI50 (MDA-MB-231) was 39.4 µM (inactive). For the same molecule, the GI50 (MDA-MB-435) was 23.9 µM (inactive), the GI50 (MDA-N) was 21.7 µM (inactive) and the GI50 (MOLT-4) was 31.8 µM (inactive). For the same molecule, the GI50 (Malme-3M) was 15.3 µM (inactive), the GI50 (NCI-H226) was 35.4 µM (inactive) and the GI50 (NCI-H23) was 68.7 µM (inactive). The GI50 (NCI-H460) was 35.5 µM (inactive), the GI50 (NCI-H522) was 87.9 µM (inactive) and the GI50 (NCI/ADR-RES) was 47.8 µM (inactive). The GI50 (OVCAR-3) was 44 µM (inactive), the GI50 (OVCAR-4) was 40.2 µM (inactive) and the GI50 (OVCAR-5) was 49 µM (inactive). The GI50 (OVCAR-8) was > 100 µM (inactive), the GI50 (PC-3) was 36.8 µM (inactive) and the GI50 (RPMI-8226) was 27.4 µM (inactive). The GI50 (RXF 393) was 57.8 µM (inactive), the GI50 (SF-268) was 90.4 µM (inactive) and the GI50 (SF-295) was 42.4 µM (inactive). The GI50 (SF-539) was 28.6 µM (inactive), the GI50 (SK-MEL-28) was 21 µM (inactive) and the GI50 (SK-MEL-2) was 21.5 µM (inactive). For the same molecule, the GI50 (SK-MEL-5) was 17.3 µM (inactive), the GI50 (SK-OV-3) was > 100 µM (inactive) and the GI50 (SN12C) was 83.4 µM (inactive). For the same molecule, the GI50 (SNB-19) was 0.0647 µM (active), the GI50 (SR) was 19.8 µM (inactive) and the GI50 (SW-620) was 0.349 µM (active). The GI50 (T47D) was 61.1 µM (inactive), the GI50 (TK-10) was 45.3 µM (inactive) and the GI50 (U-251) was 61.4 µM (inactive). The GI50 (UACC-257) was 20.3 µM (inactive), the GI50 (UACC-62) was 42.1 µM (inactive) and the GI50 (UO-31) was 0.0148 µM (active).

In the case of `C[C@]12CC[C@H](O)CC1=CC[C@@H]1[C@@H]2CC[C@]2(C)C(=O)[C@@H](N3CCOCC3)C[C@@H]12`, the GI50 (786-0) was > 100 µM (inactive), the GI50 (A498) was > 100 µM (inactive) and the GI50 (A549) was > 100 µM (inactive). The GI50 (ACHN) was > 100 µM (inactive), the GI50 (CAKI-1) was 3.26 µM (inactive) and the GI50 (CCRF-CEM) was 99.8 µM (inactive). For the same molecule, the GI50 (COLO 205) was > 100 µM (inactive), the GI50 (DU-145) was > 100 µM (inactive) and the GI50 (EKVX) was 40.6 µM (inactive). For the same molecule, the GI50 (HCC 2998) was > 100 µM (inactive), the GI50 (HCT-116) was > 100 µM (inactive) and the GI50 (HCT-15) was > 100 µM. For the same molecule, the GI50 (HL-60) was 47.1 µM (inactive), the GI50 (HOP-62) was > 100 µM (inactive) and the GI50 (HOP-92) was 50.5 µM (inactive). For the same molecule, the GI50 (HT-29) was > 100 µM (inactive), the GI50 (Hs-578T) was 90.4 µM (inactive) and the GI50 (IGROV-1) was > 100 µM (inactive). For the same molecule, the GI50 (K562) was 89.3 µM (inactive), the GI50 (KM12) was > 100 µM (inactive) and the GI50 (LOX IMVI) was > 100 µM (inactive). The GI50 (M14) was 78.5 µM (inactive), the GI50 (MCF7) was > 100 µM (inactive) and the GI50 (MDA-MB-231) was > 100 µM (inactive). For the same molecule, the GI50 (MDA-MB-435) was > 100 µM (inactive), the GI50 (MDA-N) was > 100 µM (inactive) and the GI50 (MOLT-4) was 55.3 µM (inactive). For the same molecule, the GI50 (Malme-3M) was > 100 µM (inactive), the GI50 (NCI-H226) was > 100 µM (inactive) and the GI50 (NCI-H23) was 57.8 µM (inactive). For the same molecule, the GI50 (NCI-H460) was > 100 µM (inactive), the GI50 (NCI-H522) was 23.6 µM (inactive) and the GI50 (NCI/ADR-RES) was 61.2 µM (inactive). For the same molecule, the GI50 (OVCAR-3) was > 100 µM (inactive), the GI50 (OVCAR-4) was > 100 µM (inactive) and the GI50 (OVCAR-5) was > 100 µM (inactive). The GI50 (OVCAR-8) was 47.1 µM (inactive), the GI50 (PC-3) was > 100 µM (inactive) and the GI50 (RPMI-8226) was 48.4 µM (inactive). The GI50 (RXF 393) was 36.9 µM (inactive), the GI50 (SF-268) was 48.4 µM (inactive) and the GI50 (SF-295) was > 100 µM (inactive). The GI50 (SF-539) was > 100 µM (inactive), the GI50 (SK-MEL-28) was > 100 µM (inactive) and the GI50 (SK-MEL-2) was > 100 µM (inactive). The GI50 (SK-MEL-5) was 33.1 µM (inactive), the GI50 (SK-OV-3) was > 100 µM (inactive) and the GI50 (SN12C) was > 100 µM (inactive). For the same molecule, the GI50 (SNB-19) was > 100 µM (inactive), the GI50 (SNB-75) was 30.6 µM (inactive) and the GI50 (SR) was 44.2 µM (inactive). For the same molecule, the GI50 (SW-620) was > 100 µM (inactive), the GI50 (T47D) was 31 µM (inactive) and the GI50 (TK-10) was > 100 µM (inactive). For the same molecule, the GI50 (U-251) was 89.3 µM (inactive), the GI50 (UACC-257) was > 100 µM (inactive) and the GI50 (UACC-62) was 76.4 µM (inactive). For the same molecule, the GI50 (UO-31) was > 100 µM (inactive).

— ChEMBL document CHEMBL1201862, “PubChem BioAssay data set” (2004)
